Patent US9499530B2 (HANGZHOU MINSHENG INSTITUTES FOR PHARMA RESEARCH, priority 2011, dated 2016)
pIC50: −log10 of the molar value. “Also recorded” adds a separate entry of the source.

Experiments:
[1] = biological target: EGFR (Epidermal Growth Factor Receptor 1) (Homo sapiens, UniProt P00533); assay: ELISA protein tyrosine kinase inhibition, EGFR; assay type: biochemical; settings: for pIC50: ELISA, Poly(Glu, Tyr) 4:1 substrate, ATP 5 μM, test samples at 10-5 mol/l, read-out: EGFR inhibitory activity (IC50 class)
Source text: (§1) Determining the Effect of Test Samples at a Concentration of 10-5 Mol/l on the Activity of the Substrate Phosphoryation Catalyzed by EGFR (Epidermal Growth Factor Receptor 1), ErbB-2 (Epidermal Growth Factor Receptor 2), ErbB-4, KDR (Vascular Endothelial Growth Factor Receptor 2) Protein Tyrosine Kinases at Molecular Level
(§2) Enzyme-Linked Immunosorbent Assay (ELISA)
(§3) Main instrument: wavelength-tunable microplate reader (VERSAmax).
(§4) Main reagents: kinase reaction substrate Poly(Glu, Tyr) 4:1 from Sigma; anti-phosphotyrosine monoclonal antibody PY99 from Santa Cruz; horseradish peroxidase-labeled goat anti-mouse IgG from Calbiochem; ATP, DTT, OPD from Amresco, and ELISA plate from Corning.
(§5) Poly(Glu, Tyr)4:1 as an enzyme substrate was diluted by potassium ion-free PBS into 20 μg/ml, and an ELISA plate was coated and subjected to reaction for 12-16 h at 37° C. After the liquid in wells was removed, the plate was washed three time by T-PBS, 5 min for each time. The ELISA plate was then dried in an oven at 37° C. The coated wells were added with the test samples: the test samples were prepared for a stock solution with a concentration of 1×10^−2M in DMSO. The aliquot solution was stored at −20° C., and diluted to the desired concentration with reaction buffer before use. The resulting solution was added into the wells so that the final concentration of 10-5 mol/l in 100 μL reaction system can be obtained. At the same time, a positive control well was set up and a positive control compound Su11248 was added. ATP and test tyrosine kinases were added: ATP solution diluted with reaction buffer was added (the final concentration of ATP is 5 μM). Finally, the test tyrosine kinases solution diluted with reaction buffer was added. The total volume of the reaction system was […]. Meanwhile, a negative control well and a control well without enzyme were set up. The reaction system was placed in a wet box, and shaked for 1 hour at 37° C., shielding from light. After the reaction was complete, the plate was washed by T-PBS three times. Antibody PY99 was added at 100 μL/well; and the plate was shaked for 30 min at 37° C. After the reaction was complete, the plate was washed with T-PBS three times. Horseradish peroxidase-labeled goat anti-mouse IgG was added at 100 μL/well, and the plate was shaked for 30 min at 37° C. The plate was washed with T-PBS three times. OPD developing liquid was added at 100 μL/well, and reacted for 1-10 min at room temperature, shielding from light. 50 μL of 2 M H2SO4 was added to stop the reaction. A492 value was determined using wavelength-tunable microplate reader. The inhibition ratio of the samples can be calculated by the following equation: […]

[2] = biological target: ErbB-2 (Epidermal Growth Factor Receptor 2) (Homo sapiens, UniProt P04626); assay: ELISA protein tyrosine kinase inhibition, ErbB-2; assay type: biochemical; settings: Poly(Glu, Tyr) 4:1 substrate, ATP 5 μM, test samples at 10-5 mol/l, read-out: ErbB2 inhibitory activity (IC50 class)
Source text: as §1, §2, §3, §4, §5

ErbB-4 = ErbB-4 (Homo sapiens, UniProt Q15303); assay: ELISA protein tyrosine kinase inhibition, ErbB-4; assay type: biochemical; settings: for pIC50: ELISA, Poly(Glu, Tyr) 4:1 substrate, ATP 5 μM, test samples at 10-5 mol/l, read-out: ErbB4 inhibitory activity (IC50 class)
ErbB-4, sequence (Q15303 26-1308): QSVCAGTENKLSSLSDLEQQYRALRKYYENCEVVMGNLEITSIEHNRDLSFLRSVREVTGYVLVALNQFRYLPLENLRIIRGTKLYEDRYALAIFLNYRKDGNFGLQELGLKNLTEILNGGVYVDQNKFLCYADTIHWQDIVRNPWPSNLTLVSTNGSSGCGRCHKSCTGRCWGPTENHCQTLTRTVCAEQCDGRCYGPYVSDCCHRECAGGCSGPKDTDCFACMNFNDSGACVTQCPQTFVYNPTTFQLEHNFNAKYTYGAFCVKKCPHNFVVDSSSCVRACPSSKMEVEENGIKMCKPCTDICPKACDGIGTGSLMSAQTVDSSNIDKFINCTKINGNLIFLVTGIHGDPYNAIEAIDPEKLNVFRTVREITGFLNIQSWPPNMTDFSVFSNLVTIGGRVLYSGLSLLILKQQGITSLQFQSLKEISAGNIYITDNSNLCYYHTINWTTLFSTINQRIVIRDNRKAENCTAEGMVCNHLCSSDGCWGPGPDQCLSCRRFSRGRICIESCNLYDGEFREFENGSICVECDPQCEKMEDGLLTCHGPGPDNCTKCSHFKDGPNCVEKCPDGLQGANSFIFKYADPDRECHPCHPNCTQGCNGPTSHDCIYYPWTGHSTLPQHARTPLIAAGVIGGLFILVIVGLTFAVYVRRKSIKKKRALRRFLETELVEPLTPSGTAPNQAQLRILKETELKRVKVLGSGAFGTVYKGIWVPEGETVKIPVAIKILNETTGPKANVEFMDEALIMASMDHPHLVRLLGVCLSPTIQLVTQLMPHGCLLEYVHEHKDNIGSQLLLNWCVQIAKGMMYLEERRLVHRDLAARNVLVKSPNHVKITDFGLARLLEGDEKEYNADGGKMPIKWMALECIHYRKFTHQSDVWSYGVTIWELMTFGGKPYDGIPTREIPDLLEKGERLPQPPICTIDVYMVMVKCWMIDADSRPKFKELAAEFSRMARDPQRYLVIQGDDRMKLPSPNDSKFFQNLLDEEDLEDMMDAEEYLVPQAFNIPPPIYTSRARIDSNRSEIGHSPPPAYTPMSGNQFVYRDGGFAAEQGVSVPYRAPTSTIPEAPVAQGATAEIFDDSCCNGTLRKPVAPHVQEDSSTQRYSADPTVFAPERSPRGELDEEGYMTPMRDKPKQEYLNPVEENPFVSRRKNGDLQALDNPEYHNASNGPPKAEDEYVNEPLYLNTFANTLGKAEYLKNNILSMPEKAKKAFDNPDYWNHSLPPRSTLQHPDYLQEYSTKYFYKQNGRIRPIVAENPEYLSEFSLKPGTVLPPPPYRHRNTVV
Source text: as §1, §2, §3, §4, §5

[3] = biological target: KDR (Vascular Endothelial Growth Factor Receptor 2) (Homo sapiens, UniProt P35968); assay: ELISA protein tyrosine kinase inhibition, KDR; assay type: biochemical; settings: for pIC50: ELISA, Poly(Glu, Tyr) 4:1 substrate, ATP 5 μM, test samples at 10-5 mol/l, read-out: KDR inhibitory activity (IC50 class)
KDR (Vascular Endothelial Growth Factor Receptor 2), sequence (P35968 20-1356): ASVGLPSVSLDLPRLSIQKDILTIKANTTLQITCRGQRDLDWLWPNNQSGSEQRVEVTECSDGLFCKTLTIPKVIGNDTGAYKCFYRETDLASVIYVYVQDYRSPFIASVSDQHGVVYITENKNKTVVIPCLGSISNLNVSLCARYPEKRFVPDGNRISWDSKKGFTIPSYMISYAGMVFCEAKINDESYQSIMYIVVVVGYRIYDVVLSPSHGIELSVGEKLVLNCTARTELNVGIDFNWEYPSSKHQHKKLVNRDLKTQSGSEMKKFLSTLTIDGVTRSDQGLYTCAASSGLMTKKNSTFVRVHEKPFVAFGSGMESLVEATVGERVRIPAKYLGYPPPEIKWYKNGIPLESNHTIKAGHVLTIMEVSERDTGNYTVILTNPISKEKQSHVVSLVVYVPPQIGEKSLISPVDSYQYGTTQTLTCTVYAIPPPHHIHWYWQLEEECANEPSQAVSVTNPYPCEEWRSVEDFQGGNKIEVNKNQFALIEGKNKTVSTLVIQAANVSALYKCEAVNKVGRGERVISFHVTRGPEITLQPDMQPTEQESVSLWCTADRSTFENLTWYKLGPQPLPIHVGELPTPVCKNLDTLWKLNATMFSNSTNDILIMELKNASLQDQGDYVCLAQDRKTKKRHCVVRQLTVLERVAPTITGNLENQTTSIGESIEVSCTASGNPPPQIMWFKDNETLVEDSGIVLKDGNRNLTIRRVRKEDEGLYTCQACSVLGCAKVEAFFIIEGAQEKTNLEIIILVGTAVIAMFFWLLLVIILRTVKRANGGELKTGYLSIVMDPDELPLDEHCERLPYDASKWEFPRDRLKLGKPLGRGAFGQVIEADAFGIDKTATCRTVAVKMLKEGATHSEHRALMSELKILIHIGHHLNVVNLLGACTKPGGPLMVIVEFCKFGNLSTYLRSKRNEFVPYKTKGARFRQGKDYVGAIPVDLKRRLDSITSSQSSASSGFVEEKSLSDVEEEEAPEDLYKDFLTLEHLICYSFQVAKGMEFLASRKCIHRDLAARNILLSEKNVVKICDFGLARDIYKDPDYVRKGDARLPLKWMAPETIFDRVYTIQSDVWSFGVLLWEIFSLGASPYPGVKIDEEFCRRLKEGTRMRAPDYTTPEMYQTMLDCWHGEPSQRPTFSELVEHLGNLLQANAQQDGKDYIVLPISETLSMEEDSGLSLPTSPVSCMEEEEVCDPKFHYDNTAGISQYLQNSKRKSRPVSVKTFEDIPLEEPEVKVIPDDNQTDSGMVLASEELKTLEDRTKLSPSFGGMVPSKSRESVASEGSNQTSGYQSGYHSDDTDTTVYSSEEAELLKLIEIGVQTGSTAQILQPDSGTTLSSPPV
Source text: as §1, §2, §3, §4, §5

[4] = tested on: human lung cancer A549 xenograft; assay: Growth inhibition of A549 xenograft in nude mice; assay type: in vivo; settings: for growth inhibition of human lung cancer A549 compared with positive control lapatinib (in words): xenograft in nude mice, 200 mg/kg
Source text: Objective of the test: Determining the inhibition of some compounds of the present invention to the growth of human lung cancer A549 transplanted into nude mice and the action intensity thereof.
1. Human lung cancer A549 xenograft in nude mice, which was set up by subcutaneously transplantion of the human lung cancer A549 cell lines into right axillary fossa of nude mice. The amount of inoculation is 2×10^6 cells/mouse. Xenograft inoculated into the nude mice was passaged for 3 generations before use.
2. The solvent used in the experiments is: 0.5% of hydroxypropylmethyl cellulose and 0.1% of Tween-80.
3. Vigorous growing tumor tissues were selected to be chopped into approximately 1 mm^3. Under sterile conditions, the tumor tissue blocks were subcutaneously transplanted into right axillary fossa of nude mice. The diameters of the xenograft in nude mice were measured with a vernier caliper. When tumors reached approximately 100-300 mm^3 in size, the animals were randomly divided into groups, wherein there are 12 animals in solvent control group, and 6 animals per group in the other groups. […] The administered dosages were both 200 mg/kg, 5 times per week for consecutive four weeks. The diameters of the tumors were measured twice per week. The negative control group was intragastricly administrated the same amount of solvent. After the experiment, the mice were sacrificed. The tumors were surgically stripped and weighed. The tumor volume (TV) was calculated by the following equation:
[formula] in which a and b represents for the length and the width respectively.
According to the measured results, the relative tumor volume (RTV) was calculated. The calculation equation was: RTV=Vt/V0, wherein V0 is the tumor volume measured during cage administration (i.e. d0), Vt is the tumor volume of each measurement. The evaluation index of anti-tumor activity was the relative tumor growth ratio T/C (%), which was calculated by the following equation: […]
TRTV: treatment group's RTV; CRTV: negative control group's RTV.

| Compound | pIC50 [1] | pIC50 [2] | pIC50 [3] | inhibitory activity against KDR (in words) [3] | other results |
| --- | --- | --- | --- | --- | --- |
| OCC(O)CNCc1ccc(-c2ccc3ncnc(Nc4ccc(OCc5cccc(F)c5)c(Cl)c4)c3c2)o1 (centres unmarked) [MS31·dimethanesulfonate, N-(3-chloro-4-((3-fluorobenzyl)oxy)phenyl)-6-(5-((1-(2,3-dihydroxypropyl)amino)methyl)-2-furyl)-4-quinazolinamine] | > 5.00 | > 5.00 | > 5.00 |  | pIC50 (ErbB-4): > 5.00 |
| OCC(CO)NCc1ccc(-c2ccc3ncnc(Nc4ccc(OCc5cccc(F)c5)c(Cl)c4)c3c2)o1 [MS6, N-(3-chloro-4-((3-fluorobenzyl)oxy)phenyl)-6-(5-((2-(1,3-dihydroxypropyl)amino)methyl)-2-furyl)-4-quinazolinamine] |  |  |  | better inhibitory activity; also recorded: higher inhibitory activity | growth inhibition of human lung cancer A549 compared with positive control lapatinib (in words) [4]: better effective inhibition; also recorded: better growth inhibition effect |
| CCCNCc1ccc(-c2ccc3ncnc(Nc4ccc(F)c(Cl)c4)c3c2)o1 [MS 36, N-(3-chloro-4-fluorophenyl)-6-(5-(((propyl)amino)methyl)-2-furyl)-4-quinazolinamine] |  | > 5.00 | < 5.00 |  | TV (mm^3) End ([4]; A549 xenograft, 200 mg/kg intragastric, 5 times per week for four weeks, end): 770.3 ± 212.8^▴ mm^3; TV (mm^3) Start ([4]; A549 xenograft, 200 mg/kg intragastric, start of dosing): 155.5 ± 72.8 mm^3; T/C (%) ([4]; A549 xenograft, relative tumor growth ratio, 200 mg/kg intragastric, 5 times per week for four weeks): 36.1%; Weight (g) End ([4]; nude mice with A549 xenograft, 200 mg/kg intragastric, 5 times per week for four weeks, end): 25.0 ± 1.8 g; Weight (g) Start ([4]; nude mice with A549 xenograft, 200 mg/kg intragastric, start of dosing): 24.5 ± 1.8 g; growth inhibition of human lung cancer A549 compared with positive control lapatinib (in words) [4]: better growth inhibition effect |
| Fc1cccc(COc2ccc(Nc3ncnc4ccc(-c5ccc(CNCCc6cccc(Cl)c6)o5)cc34)cc2Cl)c1 [MS 20, N-(3-chloro-4-((3-fluorobenzyl)oxy)phenyl)-6-(5-(((2-(3-chlorophenyl)ethyl)amino)methyl)-2-furyl)-4-quinazolinamine] | > 5.00 | > 5.00 | < 5.00 |  |  |
| Fc1cccc(COc2ccc(Nc3ncnc4ccc(-c5ccc(CNCC6CCCCC6)o5)cc34)cc2Cl)c1 [MS 7, N-(3-chloro-4-((3-fluorobenzyl)oxy)phenyl)-6-((5-((cyclohexylmethyl)amino)methyl)-2-furyl)-4-quinazolinamine] | > 5.00 | < 5.00 | > 5.00 |  |  |
| N-(3-chloro-4-((3-fluorobenzyl)oxy)phenyl)-6-(5-((morpholinyl)methyl)-2-thienyl)-4-quinazolinamine [MS 33] | > 5.00 | < 5.00 | < 5.00 |  | inhibitory activity against EGFR (in words) [1]: better inhibitory activity; inhibition of c-ErbB4/HER4 (in words) (ErbB-4): very good inhibition; pIC50 (ErbB-4): > 5.00 |
| OCCCNCc1ccc(-c2ccc3ncnc(Nc4ccc(OCc5cccc(F)c5)c(Cl)c4)c3c2)o1 [MS42] |  |  |  | better inhibitory activity; also recorded: higher inhibitory activity |  |
| Fc1ccc(Nc2ncnc3ccc(-c4ccc(CNCCC5=CCCCC5)o4)cc23)cc1Cl [MS41, N-(3-chloro-4-fluorophenyl)-6-(5-(((2-(cyclohexenyl)ethyl)amino)methyl)-2-furyl)-4-quinazolinamine] |  | > 5.00 | < 5.00 |  |  |
| OCCCCNCc1ccc(-c2ccc3ncnc(Nc4ccc(OCc5cccc(F)c5)c(Cl)c4)c3c2)o1 [MS1, N-(3-chloro-4-((3-fluorobenzyl)oxy)phenyl)-6-(5-(((4-hydroxybutyl)amino)methyl)-2-furyl)-4-quinazolinamine] |  |  |  | better inhibitory activity; also recorded: higher inhibitory activity |  |
| Fc1cccc(COc2ccc(Nc3ncnc4ccc(-c5ccc(CNCC6CCCC(Cl)C6)o5)cc34)cc2Cl)c1 (centres unmarked) [MS 9, N-(3-chloro-4-((3-fluorobenzyl)oxy)phenyl)-6-(5-((((3-chlorocyclohexyl)methyl)amino)methyl)-2-furyl)-4-quinazolinamine] | > 5.00 | < 5.00 | > 5.00 |  |  |
| OCCN(CCO)Cc1ccc(-c2ccc3ncnc(Nc4ccc(OCc5cccc(F)c5)c(Cl)c4)c3c2)o1 [MS18, N-(3-chloro-4-((3-fluorobenzyl)oxy)phenyl)-6-(5-((bis(2-hydroxyethyl)amino)methyl)-2-furyl)-4-quinazolinamine] |  |  |  | better inhibitory activity; also recorded: higher inhibitory activity |  |
| OCC(O)CNCc1ccc(-c2ccc3ncnc(Nc4ccc(OCc5cccc(F)c5)c(Cl)c4)c3c2)o1 (centres unmarked) [MS31, N-(3-chloro-4-((3-fluorobenzyl)oxy)phenyl)-6-(5-(1-(2,3-dihydroxypropyl)amino)methyl-2-furyl)-4-quinazolinamine] |  |  |  | better inhibitory activity; also recorded: higher inhibitory activity |  |
| CC=CCNCc1ccc(-c2ccc3ncnc(Nc4ccc(F)c(Cl)c4)c3c2)o1 [MS 39, N-(3-chloro-4-fluorophenyl)-6-(5-(((2-butenyl)amino)methyl)-2-furyl)-4-quinazolinamine] |  | > 5.00 | < 5.00 |  |  |
| CSCCC(NCc1ccc(-c2ccc3ncnc(Nc4ccc(OCc5cccc(F)c5)c(Cl)c4)c3c2)o1)C(=O)O (centres unmarked) [MS 26, N-(3-chloro-4-((3-fluorobenzyl)oxy)phenyl)-6-(5-((((1-carboxy-3-methylthio)propyl)amino)methyl)-2-furyl)-4-quinazolinamine] | > 5.00 | > 5.00 |  |  | growth inhibition of human lung cancer A549 compared with positive control lapatinib (in words) [4]: better effective inhibition |
| N-(3-chloro-4-((3-fluorobenzyl)oxy)phenyl)-6-(5-((4-methylpiperazinyl)methyl)-2-pyrrolidinyl)-4-quinazolinamine [MS 34] | > 5.00 | > 5.00 |  |  | inhibitory activity against EGFR (in words) [1]: better inhibitory activity; inhibition of c-ErbB4/HER4 (in words) (ErbB-4): very good inhibition; pIC50 (ErbB-4): > 5.00 |
| OCCNCc1ccc(-c2ccc3ncnc(Nc4ccc(OCc5cccc(F)c5)c(Cl)c4)c3c2)o1 [MS27, N-(3-chloro-4-((3-fluorobenzyl)oxy)phenyl)-6-(5-(((2-hydroxyethyl)amino)methyl)-2-furyl)-4-quinazolinamine] |  |  |  | better inhibitory activity; also recorded: higher inhibitory activity | growth inhibition of human lung cancer A549 compared with positive control lapatinib (in words) [4]: better effective inhibition; also recorded: better growth inhibition effect |
